Results published in patent publication US8389567B2, “Compounds that modulate intracellular calcium” (Calcimedica, Inc., priority 2007, dated 2013).

Key:
[1] = tested on: STIM1-induced Ca2+ entry in HEK[STIM1] cells
Experimental: (§1) To test whether the Ca^2+ entry pathway constitutively activated by STIM 1 overexpression is pharmacologically similar to endogenous SOCE, HEK[STIM1] cells are pre-incubated with increasing doses of 2-APB and STIM1-induced Ca^2+ entry is measured.

[2] = tested on: store-operated calcium entry in HEK-Zeo control cells; details: read-out: IC50 for inhibition of calcium entry, thapsigargin store depletion, readdition of external calcium, pre-incubation with increasing doses
Experimental: as §1

[3] = tested on: store-operated calcium entry in HEK[STIM1] cells; details: read-out: IC50 for inhibition of calcium entry, thapsigargin store depletion, readdition of external calcium, pre-incubation with increasing doses
Experimental: as §1

Question: Which results are given for NCCOB(c1ccccc1)c1ccccc1 [Compound 2-APB, 2-aminoethoxydiphenyl borate]?
Answer: effect on calcium entry at lower concentrations ([1]; absence of store depletion, lower concentrations of 2-APB (biphasic effect)): potentiated; IC50 ([1]; read-out: IC50 for inhibition of constitutive calcium entry, absence of store depletion): 10.8 µM; IC50 [2]: 11.8 µM; IC50 [3]: 10.5 µM
